Four molecules from article PMC12299847, “Macroalgae-Inspired Brominated Chalcones as Cosmetic Ingredients with the Potential to Target Skin Inflammaging” (Marine Drugs, 2025) can be followed below.

Each structure is given as a SMILES string. Counter-ions that a name gives are not always drawn.

One series concerns Nrf2. The experiment in a line: KeratinoSens assay, Nrf2 luciferase reporter. The settings on record: 100 µM, positive control. The series is classed as cell-based, human. The protocol: The KeratinoSens™ assay was originally developed to assess the skin sensitization potential of Nrf2 activation, but it has also been utilized to evaluate the ability of natural compounds to induce this transcription factor [46, 47]. In this study, we assessed the capacity of chalcones 1 and 2 to activate Nrf2 after 24 and 48 h (Figure 8A–F).
Selected compounds (chalcones 1 and 2), and the positive control, DMF, were dissolved in sterile DMSO. Intermediate dilutions were prepared in culture medium, including the final concentration to be added to the 96-well plate, with a final volume of 200 µL per well. The KeratinoSens™ assay was conducted as previously described. In brief, cells were seeded at a density of 10,000 cells per well in 96-well white opaque plates (Greiner Bio-One GmbH, cat. no. 655083, Kremsmünster, Austria) and incubated for 24 h. The medium was then replaced with fresh medium containing 1% FBS and the test compounds, and cells were incubated for an additional 24 and 48 h. DMF was used as the positive control since it is a known Nrf2 activator. Cell viability was assessed in the same cells using resazurin. After 20 or 44 h of exposure to the test compounds, 50 µM of resazurin solution (in sterile PBS) was added to each well, and the plates were incubated for 4 h at 37 °C, 5% CO2 Following the resazurin incubation, the supernatant was transferred to a transparent 96-well plate, and absorbance was measured at 570 and 620 nm using a Synergy HT multi-mode microplate reader (BioTek, Bad Friedrichshall, Germany). To measure luciferase activity, cells in the white opaque 96-well plates were washed with 1× PBS. An equal volume of 1× PBS and lysis buffer (One-GLO Luciferase, cat. no. E6130, Promega, Madison, WI, USA) was added to the wells, and the plates were incubated for 20 min at room temperature. Luminescence was then measured using a FLUOstar OMEGA Microplate Reader (BMG Labtech GmbH, Ortenberg, Germany).
Figure 8 Nrf2 activation using the KeratinoSens™ assay in HaCaT cells transfected with an Nrf2 luciferase reporter construct, incubated for 24 h (A–C) or 48 h (D–F) with chalcones 1 and 2. DMF was used as a positive control. Data represent the results from four independent experiments. Non-linear regression analysis was performed using GraphPad Prism v.9.0.0 for Windows. The blue line represents the results of cell viability (% regarding the control) and the green line represents fold induction. Statistical analysis: one ANOVA with Dunnett’s multiple comparisons test, where significance includes. * p < 0.05, ** p < 0.01, *** p < 0.0005, and **** p < 0.0001.
A general note: Reporter assays use an easily measured gene product as a stand-in for the process of interest.

A short description of series [1]: Resazurin cell viability assay in HaCaT keratinocytes. The series is classed as cell-based, human. The settings on record: human, HaCaT keratinocytes, resazurin, read-out: IC50 (cell viability, cytotoxicity). As to the method:
(§1) To evaluate the effects of chalcones 1–7 on cell viability after 24 h, a resazurin assay was performed using two cell lines: human HaCaT keratinocytes (HaCaT, CLS 300493), representing the epidermal layer, and murine RAW 264.7 macrophages (RAW 264.7, ATCC TIB-71), which model immune cells involved in dermal inflammatory responses. For the keratinocyte cell line, all seven brominated and non-brominated chalcones were tested across a concentration range from 2.5 μM to 125 μM (Figure 2).
(§2) Human keratinocytes (HaCaT, CLS 300493, Eppelheim, Germany) were cultured in DMEM supplemented with heat-inactivated FBS, and a penicillin and streptomycin antibiotic solution. The cell culture of keratinocytes was washed with 6 mL of phosphate buffer solution with 0.05% EDTA (Sigma-Aldrich, St. Louis, MO, USA) and detached using 3 mL of 0.05% trypsin + 0.02% EDTA in PBS solution when the cells reached 70–80% confluence in cell culture flasks. DMEM was also used to cultivate the mouse macrophage cell line (RAW 264.7, ATCC TIB-71, Manassas, VA, USA) together with 10% (v/v) non-inactivated FBS, 1.5 g/L sodium bicarbonate, and 100 U/mL penicillin and 100 μg/mL streptomycin stock (antibiotic solution). The macrophage culture was mechanically detached using a cell scraper, and the final amount of DMEM media with the cells was sub-cultured in a 1:10 ratio to the cellular suspension.
(§3) The resazurin reduction assay was employed to evaluate the metabolic activity of human epidermal keratinocyte (HaCaT) and murine macrophage (RAW264.7) cell lines, as outlined in a previous study. In brief, HaCaT cells (1.0 × 10^5 cells/mL) and RAW264.7 cells (5.0 × 10^4 cells/mL) were seeded in 96-well plates (200 μL/well) and incubated overnight at 37 °C to allow for cell attachment. Following this, the cells were treated with different concentrations of the test compounds and kept at 37 °C for 24 h. After 20 h, resazurin (500 μM in sterile phosphate buffer solution, pH 7.4) was added to each well to achieve a final concentration of 50 μM, followed by an additional incubation of 4 h. Absorbance was then measured at wavelengths of 570 and 620 nm using a SpectraMax Plus 384 absorbance microplate spectrophotometer (Molecular Devices, San Jose, CA, USA). Each experiment was conducted in triplicate, with a minimum of three independent assays. The results were graphically presented as the percentage of cell viability versus chemical concentration, relative to the control.
(§4) Figure 2 Cytotoxicity of chalcones 1–7 using a resazurin reduction assay in HaCaT cells by comparison with the control. Bar graphs represent the mean ± SEM of at least three independent experiments performed in triplicate. Statistical analysis: one ANOVA with Dunnett’s multiple comparisons test, where p < 0.05 was considered significant when compared to the control condition. * p < 0.05, ** p < 0.01, and *** p < 0.0005.
Background: The colour change of resazurin is a common sign of viable cells or microbes.

The subject of the next series is HaCaT keratinocytes. The series is described as above. The series is classed as cell-based, human. The note with it: HaCaT, 24 h. The protocol:
as §1, §2, §3, §4

Series [2] relates to NO production in LPS-stimulated RAW 264.7 macrophages. The series can be described thus: NO production (Griess assay) in LPS-stimulated macrophages. It is filed as cell-based, murine. The note with it: RAW 264.7, LPS 100 ng/mL; for IC50: Mus musculus, RAW264.7, 24 h, Griess. The protocol:
The anti-inflammatory potential of chalcones 1–7 was evaluated in macrophages cultured in the presence or absence (control) of LPS, as depicted in Figure 4. Under basal conditions (unstimulated, control), macrophages produce low levels of nitrites (≈12%). […] Each chalcone was tested at concentrations previously established as non-cytotoxic in macrophages, trying to ensure that observed changes in NO levels were not due to reduced cell viability.
The production of NO was evaluated by measuring nitrite accumulation in culture supernatants using the previously described Griess assay. Cells were seeded at a concentration of 5.0 × 10^4 cells/mL in a 96-well plate (200 μL/well) and allowed to stabilize overnight at 37 °C. Afterwards, the cells were treated with different concentrations of compound solutions and pre-incubated for 1 h at 37 °C. Subsequently, an LPS in PBS solution was added to each well, achieving a final concentration of 100 ng/mL, and the plate was left to incubate for 24 h. An amount of 150 μL of the cell culture supernatant was then transferred to a fresh 96-well plate, and an equal amount of Griess reagent [comprising a 1:1 mixture of 1% (w/v) sulphanilamide in 5% (v/v) phosphoric acid and 0.1% (w/v) naphthylethylenediaminedihydrochloride] was added. Following a 30 min incubation at room temperature in the dark, the absorbance was recorded at 550 nm using a Biotek Synergy HT plate reader (Biotek, CA, USA). The nitrite concentration in the supernatants was determined by comparing the absorbance of each sample to a sodium nitrite standard curve. The results, obtained from at least three independent experiments performed in duplicate, were expressed as a percentage of NO production by cells versus chemical concentration, relative to LPS condition (100%).
Figure 4 NO production by macrophages treated with LPS (100 ng/mL) or not (control) in the presence of chalcones 1–7. Results are expressed as a percentage of NO production by cells treated with LPS (100 ng/mL). Each value represents the mean ± SEM of four independent experiments in duplicate. Statistical analysis: one ANOVA with Dunnett’s multiple comparisons test, where p< 0.05 was considered significant. *** p < 0.005, relative to the control, and ^# p < 0.05, ^## p < 0.01, ^### p < 0.0005, and ^#### p < 0.0001, relative to LPS condition.
A general note: Nitrite, measured by Griess reagent, commonly stands in for NO production.

The test system of series [3] is iNOS protein levels in RAW264.7 macrophages. The experiment in a line: Western blot analysis of iNOS expression in LPS-stimulated macrophages. The series is classed as cell-based, murine. The settings on record: for iNOS expression level: normalized against LPS condition. As to the method:
To investigate the underlying mechanism of action of the most promising brominated chalcones (1 and 2), their effects on iNOS protein levels were assessed in LPS-stimulated macrophages at different time points (4, 6, and 24 h). The non-treated (NT) condition, consisting of macrophages stimulated with LPS but receiving no chalcone treatment, was used as the reference for maximal iNOS induction under inflammatory conditions and served as a positive control. The selected concentrations (7.5 μM and 15 μM) were selected based on chalcones 1 and 2 cytocompatibility (Figure 3) and efficacy in reducing NO production (Figure 4). Since NO production is a direct consequence of iNOS enzymatic activity, where the enzyme catalyzes the conversion of L-arginine to NO following inflammatory stimulation such as LPS, this provides a functional readout of iNOS expression and activity.
Here, we focused on validating iNOS expression at the protein level by western blot (Figure 6). While gene-level expression was not assessed, it is well established that LPS stimulation induces both iNOS transcription and translation in RAW 264.7 macrophages. Moreover, changes observed at the protein level are often closely associated with upstream transcriptional or translational modulation. Therefore, quantifying iNOS protein levels provides a biologically relevant measure of the chalcones’ inhibitory effects on this key inflammatory mediator.
The expression of the iNOS enzyme was analyzed by western blot. RAW264.7 macrophages were seeded at a density of 1 × 10^6 cells/well in a 6-well plate and incubated for 24 h at 37 °C in a humidified atmosphere containing 5% CO2. After incubation, cells were treated with 7.5 µM or 15 µM of the most promising chalcones (1 and 2) for 30 min, followed by the addition of LPS to have a final concentration of 100 ng/mL. Cells were then incubated for 4, 6, or 24 h. At each time point, cells were washed with PBS and lysed in RIPA buffer. The lysates were collected in Eppendorf tubes and kept on ice, with intermittent vortexing to ensure thorough lysis. Samples were centrifuged at 18,000× g for 16 min at 4 °C, and the supernatant was collected. Total protein concentration was determined using the Pierce™ BCA Protein Assay Kit (Thermo Scientific, 23225, Waltham, MA, USA), following the manufacturer’s instructions. Equal amounts of protein (25 µg) were loaded onto Bolt™ 8% Bis-Tris Mini Protein Gels (Invitrogen™, NW00087BOX, Waltham, MA, USA) and separated via electrophoresis. Proteins were then transferred onto nitrocellulose membranes (Invitrogen™, IB24002) using the iBlot® 2 dry transfer system (Invitrogen™, Waltham, MA, USA). After transfer, membranes were sectioned to separate the iNOS bands from those of the housekeeping protein GAPDH. Membranes were blocked for 1 h at room temperature in TBS-T containing 5% BSA and subsequently incubated overnight at 4 °C with primary antibodies against iNOS (Cell Signaling Technology, 16713120S, Danvers, MA, USA) or GAPDH (Abcam, ab181602, Cambridge, UK), diluted in TBS-T with 1% BSA. On the following day, membranes were washed three times with TBS-T and incubated for 1 h at room temperature with an HRP-conjugated secondary antibody (Cell Signaling Technology, 7074S) diluted in TBS-T with 1% BSA. After three additional washes, signal detection was performed using Clarity™ Western ECL Substrate (Bio-Rad, 1705061, Hercules, CA, USA), and chemiluminescent signals were acquired using the Odyssey FC imaging system (LI-COR, Lincoln, NE, USA). Densitometric analysis of iNOS bands was performed using Image Studio™ Software (version 5.2, LI-COR, Lincoln, NE, USA), with values normalized to the corresponding GAPDH bands.
Figure 6 iNOS expression level after treatment of 4, 6, and 24 h with chalcones 1 and 2 in macrophage cell line. Results are expressed as volume arbitrary unit (A). […]

On to `COC(=O)/C=C/C(=O)OC` [DMF, dimethyl fumarate, reference compound], for which the “Nrf2 activation, fold increase” value in the series on Nrf2 came out at 8.36 fold.
As for `COc1ccc(/C=C/C(=O)c2ccc(OC)c(OC)c2)cc1OC` [Chalcone 3], in series [1], the concentration for half-maximal inhibition (IC50) at 24 h is 62.1 ± 1.07 µM. Besides, in the series on HaCaT keratinocytes (at 62.5 and 125 μM), the “reduction in cell viability” value is greater than 50%. Further, the IC50 in series [2] turned out to be 4.73 ± 0.67 µM. Moreover, the “concentration that reduced NO production to levels similar to the control” value in series [2] (24 h) was 125 µM.
Consider `COc1ccc(/C=C/C(=O)c2cc(OC)c(OC)cc2Br)cc1OC` [Chalcone 2], for which, in series [2], the IC50 is 0.77 ± 0.31 µM. Besides, the iNOS expression level in series [3] (7.5 µM, 4 h) came out at 38.9%; in series [3] (7.5 µM, 24 h) it was 20.2%; in series [3] (15 µM, 4 h), 20.5%; in series [3] (15 µM, 6 h), 5.7%; in series [3] (15 µM, 24 h), 6.1%. In addition, in series [3] (7.5 µM, 24 h), the “maximum iNOS suppression” value was ~ 80%. For the same molecule, the iNOS suppression in series [3] (15 µM, 6 h, stable up to 24 h) is listed as ~ 95%.
Consider `COc1ccc(/C=C2\CCc3cc(OC)c(OC)cc3C2=O)cc1OC` [Chalcone 7], for which the “maximal reduction in viability” value in the series on HaCaT keratinocytes (significant effects only at 62.5 μM and 125 μM) is reported as no more than 15%. The “reduction of NO production in LPS-stimulated cells” value in series [2] (24 h) is 12%.

A word on the IC50: it is the concentration needed to halve the response being measured.
